{"source": "ChEMBL document CHEMBL1143445", "about": "“Highly cytotoxic and neurotoxic acetogenins of the Annonaceae: new putative biological targets of squamocin detected by activity-based protein profiling” (Bioorg Med Chem Lett, 2008)", "key": {"[1]": {"assay": "Drug uptake in mitochondria of human HeLa cells assessed as intracellular localization after 6 hrs", "type": "ADME"}, "[2]": {"target": "COP9 signalosome complex subunit 7b (Homo sapiens) (UniProt Q9H9Q2)", "sequence (Q9H9Q2 whole entry, one chain of several)": "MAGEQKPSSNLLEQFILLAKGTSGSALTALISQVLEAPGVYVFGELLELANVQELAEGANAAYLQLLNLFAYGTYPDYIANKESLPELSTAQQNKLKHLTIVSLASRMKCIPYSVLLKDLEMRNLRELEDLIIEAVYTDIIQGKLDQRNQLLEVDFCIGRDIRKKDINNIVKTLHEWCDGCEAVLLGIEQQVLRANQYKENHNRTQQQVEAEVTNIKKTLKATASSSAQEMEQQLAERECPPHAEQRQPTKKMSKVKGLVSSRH", "assay": "Binding affinity to COP9 signalosome complex subunit 7b in human Jurkat cells at 10 uM after 24 hrs by 2D electrophoresis", "type": "cell-based"}, "[3]": {"target": "T1, Glutathione S-transferase omega-1 (Homo sapiens) (UniProt P78417)", "T1 sequence (whole entry)": "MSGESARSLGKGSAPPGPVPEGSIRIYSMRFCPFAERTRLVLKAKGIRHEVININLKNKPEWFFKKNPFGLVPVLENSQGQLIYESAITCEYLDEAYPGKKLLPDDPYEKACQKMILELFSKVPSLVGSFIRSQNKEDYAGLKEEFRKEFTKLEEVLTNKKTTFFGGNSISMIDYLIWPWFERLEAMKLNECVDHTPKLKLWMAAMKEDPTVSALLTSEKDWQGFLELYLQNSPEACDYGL", "assay": "Binding affinity to glutathione transferase omega 1 in human Jurkat cells at 10 uM after 24 hrs by 2D electrophoresis", "type": "cell-based"}, "[4]": {"target": "Succinate dehydrogenase [ubiquinone] flavoprotein subunit, mitochondrial (Homo sapiens) (UniProt P31040)", "sequence (P31040 whole entry)": "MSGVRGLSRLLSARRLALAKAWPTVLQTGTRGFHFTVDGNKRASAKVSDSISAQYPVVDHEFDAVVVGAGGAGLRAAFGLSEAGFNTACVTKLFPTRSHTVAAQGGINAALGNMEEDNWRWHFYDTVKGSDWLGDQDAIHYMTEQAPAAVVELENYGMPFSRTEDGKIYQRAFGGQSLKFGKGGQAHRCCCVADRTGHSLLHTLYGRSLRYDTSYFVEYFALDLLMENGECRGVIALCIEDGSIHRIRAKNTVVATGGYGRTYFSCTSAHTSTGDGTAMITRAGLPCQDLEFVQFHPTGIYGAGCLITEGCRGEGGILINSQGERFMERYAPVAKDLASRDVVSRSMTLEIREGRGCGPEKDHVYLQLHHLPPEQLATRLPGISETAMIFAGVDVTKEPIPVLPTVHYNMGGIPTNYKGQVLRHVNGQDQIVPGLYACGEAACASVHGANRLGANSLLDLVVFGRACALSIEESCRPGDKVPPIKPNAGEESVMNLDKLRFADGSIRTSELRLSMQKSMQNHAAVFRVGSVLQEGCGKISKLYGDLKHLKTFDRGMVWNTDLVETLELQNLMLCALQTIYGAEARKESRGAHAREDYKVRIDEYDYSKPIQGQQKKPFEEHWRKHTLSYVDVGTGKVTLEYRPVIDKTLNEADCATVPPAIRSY", "assay": "Binding affinity to flavoprotein subunit of succinate dehydrogenase in human Jurkat cells at 10 uM after 24 hrs by 2D electrophoresis", "type": "cell-based"}, "[5]": {"target": "Protein disulfide-isomerase (Homo sapiens) (UniProt P07237)", "sequence (P07237 18-508 limits assumed)": "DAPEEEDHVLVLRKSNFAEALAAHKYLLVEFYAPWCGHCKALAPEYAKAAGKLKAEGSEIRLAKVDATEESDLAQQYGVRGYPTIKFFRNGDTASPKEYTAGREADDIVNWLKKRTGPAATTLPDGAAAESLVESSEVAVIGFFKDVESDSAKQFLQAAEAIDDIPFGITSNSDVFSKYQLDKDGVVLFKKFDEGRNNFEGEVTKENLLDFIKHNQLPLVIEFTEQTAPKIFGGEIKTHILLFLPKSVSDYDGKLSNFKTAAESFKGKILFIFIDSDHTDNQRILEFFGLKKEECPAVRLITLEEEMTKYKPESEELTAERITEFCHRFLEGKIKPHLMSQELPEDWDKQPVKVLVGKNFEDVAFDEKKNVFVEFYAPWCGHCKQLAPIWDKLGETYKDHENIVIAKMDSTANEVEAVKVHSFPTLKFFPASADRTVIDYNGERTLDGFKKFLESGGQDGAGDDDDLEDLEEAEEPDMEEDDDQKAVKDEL", "assay": "Binding affinity to disulfide isomerase in human Jurkat cells at 10 uM after 24 hrs by 2D electrophoresis", "type": "cell-based"}}, "note": "The source made the active and inactive calls. No cut-off for these calls is given here.", "data": [{"smiles": "CCCCCC[C@H](CCC[C@H](O)[C@H]1CC[C@@H]([C@H]2CC[C@@H]([C@H](O)CCCCCCCCCCCC3=C[C@H](C)OC3=O)O2)O1)n1cc(CCc2ccc3c(c2)Oc2cc(O)ccc2C32OC(=O)c3ccccc32)nn1", "note": "(stereo partly specified)", "values": [{"measurement": "Activity", "setting": "[1]", "value": 71, "unit": "%"}, {"measurement": "Activity", "setting": "[2]", "value": "Active"}, {"measurement": "Activity", "setting": "[3]", "value": "Active"}, {"measurement": "Activity", "setting": "[4]", "value": "Active"}, {"measurement": "Activity", "setting": "[5]", "value": "Active"}]}, {"smiles": "CCCCCC[C@H](O)CCC[C@H](O)[C@H]1CC[C@@H]([C@H]2CC[C@@H]([C@H](O)CCCCCCCCCCCn3cc(COc4ccc5c(c4)Oc4cc(O)ccc4C54OC(=O)c5ccccc54)nn3)O2)O1", "note": "(stereo partly specified)", "values": [{"measurement": "Activity", "setting": "[1]", "value": 62, "unit": "%"}]}]}
